According to ChEMBL document CHEMBL1143119, “Novel methylene-linked heterocyclic EP1 receptor antagonists” (Bioorg Med Chem Lett, 2008):

Tests used:
[1] = Distribution coefficient, log D at pH 7.8; format: physicochemical; conditions: octanol/water
[2] = molecular target: T1, Prostaglandin E2 receptor EP1 subtype (Homo sapiens, UniProt P34995); test: Displacement of [3H]PGE2 from EP1 receptor
T1 sequence (P34995 whole entry): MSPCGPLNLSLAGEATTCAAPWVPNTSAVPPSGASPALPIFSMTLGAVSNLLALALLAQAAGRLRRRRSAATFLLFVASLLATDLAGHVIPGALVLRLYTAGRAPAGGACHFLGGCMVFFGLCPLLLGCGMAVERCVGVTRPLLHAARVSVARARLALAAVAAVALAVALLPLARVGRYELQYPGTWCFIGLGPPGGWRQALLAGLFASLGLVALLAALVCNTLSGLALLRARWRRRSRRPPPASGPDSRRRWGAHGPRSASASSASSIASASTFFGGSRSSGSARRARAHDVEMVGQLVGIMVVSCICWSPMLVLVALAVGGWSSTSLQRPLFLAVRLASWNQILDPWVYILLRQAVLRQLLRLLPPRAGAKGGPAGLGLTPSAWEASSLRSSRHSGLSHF

[3] = molecular target: T1, Prostaglandin E2 receptor EP1 subtype; test: Antagonist activity at EP1 receptor by FLIPR assay; format: functional

logD [1] | IC50 [2] [µM] | Ki [3] [µM] | Structure (SMILES)
0.7 | 0.316 | – | Cn1cc(C(=O)O)nc1Cc1cc(Cl)ccc1OCc1ccccc1
1.2 | 0.00631 | – | O=C(O)c1csc(Cc2cc(Cl)ccc2OCc2ccccc2)n1
0.7 | > 1 | – | Cn1c(C(=O)O)cnc1Cc1cc(Cl)ccc1OCc1ccccc1
2.2 | 0.158 | – | O=C(O)c1cccc(Cc2cc(Cl)ccc2OCc2ccccc2)n1
3 | – | – | O=C(O)c1cccc(C2=C(c3cc(Cl)ccc3OCc3ccccc3)CCC2)c1
– | 0.0501 | – | O=C(O)Cc1csc(-c2cc(Cl)ccc2OCc2ccccc2)n1
– | 0.0398 | 0.158 | CC(C)COc1ccc(Cl)cc1Cc1cccc(C(=O)O)n1
1.1 | 0.0251 | – | O=C(O)c1nc(Cc2cc(Cl)ccc2OCc2ccccc2)cs1
1.4 | 0.631 | – | O=C(O)c1cncc(Cc2cc(Cl)ccc2OCc2ccccc2)c1
3.1 | – | – | Cc1ccc(-c2cc(Cl)ccc2OCC(C)C)n1-c1cccc(C(=O)O)c1
0.5 | 0.02 | 0.00158 | O=C(O)c1coc(Cc2cc(Cl)ccc2OCc2ccccc2)n1
2.5 | – | – | Cc1ccc(-c2cc(Cl)ccc2OCc2ccccc2)n1-c1cccc(C(=O)O)c1
1.2 | 0.00631 | – | Cc1cc(C(=O)O)nn1Cc1cc(Br)ccc1OCc1ccccc1
– | > 1 | – | O=C(O)Cc1csc(Cc2cc(Cl)ccc2OCc2ccccc2)n1
0.6 | > 1 | – | O=C(O)c1c[nH]c(Cc2cc(Cl)ccc2OCc2ccccc2)n1
1.8 | 0.01 | 0.002 | Cc1cc(C(=O)O)oc1Cc1cc(Cl)ccc1OCc1ccccc1

logD [1] | IC50 [2] [µM] | Ki [3] [µM] | Structure (SMILES)
0.9 | 0.631 | – | O=C(O)c1cnc(Cc2cc(Cl)ccc2OCc2ccccc2)s1
– | 0.00316 | 0.000316 | CC(C)COc1ccc(Cl)cc1Cc1ccc(C(=O)O)o1
0.7 | 0.0794 | – | O=C(O)c1ccn(Cc2cc(Cl)ccc2OCc2ccccc2)n1
– | > 1 | – | Cc1cc(CC(=O)O)nn1-c1cc(Cl)ccc1OCc1ccccc1
3 | 0.158 | – | Cc1cc(C(=O)O)cn1Cc1cc(Cl)ccc1OCc1ccccc1
– | 0.0251 | – | O=C(O)c1csc(Nc2cc(Cl)ccc2OCc2ccccc2)n1
– | > 1 | – | O=C(O)c1cccc(Nc2ccccc2OCc2ccccc2)n1
– | 0.794 | – | O=C(O)c1cccc(Oc2cc(Cl)ccc2OCc2ccccc2)n1
2.3 | 0.0501 | 0.0158 | O=C(O)c1ccc(Cc2cc(Cl)ccc2OCc2ccccc2)s1
3 | 0.316 | – | O=C(O)c1cccc(Cc2cc(Cl)ccc2OCc2ccccc2)c1
1 | 0.01 | – | Cc1cc(C(=O)O)nn1Cc1cc(Cl)ccc1OCc1ccccc1
– | 0.00794 | – | CC(C)COc1ccc(Cl)cc1Cc1nc(C(=O)O)cs1
1.1 | > 1 | – | O=C(O)c1ccnc(Cc2cc(Cl)ccc2OCc2ccccc2)c1
1.5 | 0.00631 | 0.002 | O=C(O)c1ccc(Cc2cc(Cl)ccc2OCc2ccccc2)o1
– | 0.631 | – | O=C(O)c1csc(-c2cc(Cl)ccc2OCc2ccccc2)n1
2.8 | 0.0398 | – | O=C(O)c1csc(Cc2cc(Cl)ccc2OCc2ccccc2)c1

Structure (SMILES) | logD [1] | IC50 [2] [µM] | Ki [3] [µM]
Cc1cc(C(=O)O)nn1Cc1cc(Cl)ccc1OCC(C)C | – | 0.01 | 0.000794
